# From US7867983B2, “Methods to protect skeletal muscle against injury” (The University of Connecticut, priority 2007, dated 2011)
# Columns and labels:
# [1] = tested on: skeletal muscle ischemia/reperfusion injury; assay: Mouse hindlimb ischemia and reperfusion model, Evans Blue dye staining, PLC β2/β3-null mice; format: in vivo; settings: agonist alone i.p. before ischemia/reperfusion, mean±SE, PBS 23.4%±4%
# Procedure: Mouse Hindlimb Ischemia and Reperfusion Model: After 2.5- to 3-month-old wild-type (WT; C57BL6 strain) or PLC β2/β3 knockout mice (in C57BL6 background), each weighing about 23-25 g, were sedated with anesthetic (pentobarbital 50 mg/kg was given by intraperitoneal [i.p.] injection), their right or left hindlimbs (used randomly) were elevated briefly to minimize retained blood before being subjected to ischemia. Ischemia was induced by placement of a constrictor band (Latex O-Rings, Miltex Instruments, York, Pa.) above the greater trochanter with a McGiveney Hemorrhoidal Ligator (7 in long; Miltex). After 90 minutes of warm ischemia at 37° C., the constrictor was removed to allow reperfusion for 24 hours. The mice were continuously maintained on a 37° C. warming pad (Physitemp Instruments Inc, Clifton, N.J.) during the reperfusion. […]
# Quantification of Skeletal Muscle Injury: Evans Blue dye (EBD), prepared as a 1% wt/vol solution to yielding 1 mg of EBD/10 g body weight), was given via a separate i.p. injection 2.5 hours before the induction of ischemia. EBD stained only injured muscle and EBD-positive cells were quantified. […] Each field was counted at 20× magnification and their images captured via the two filters for quantification of muscle injury as follows. […] The ImageProPlus Program (version 5.0, Media Cybernetics, Inc, Silver Spring, Md.) was used for the quantitative determination. The percentage of EBD-positive areas was calculated by dividing the area of EBD staining by the total muscle cells, a quantity defined as the total area stained by anti-skeletal muscle actin antibodies and was identical to the total area in each field minus the area not occupied by any cell. […] Serum creatine kinase (CK) activity was measured with a previously described procedure. […] Both are established and accepted methods to quantify skeletal muscle injury. […]
# [2] = tested on: skeletal muscle ischemia/reperfusion injury; assay: Mouse hindlimb ischemia and reperfusion model, Evans Blue dye staining of gastrocnemius muscle, wild-type mice; format: in vivo, mouse (C57BL6 wild-type); settings: WT mice; for EBD-positive area, agonist plus DPCPX: A1 antagonist DPCPX 0.2 mg/kg i.p. 30 min before agonist; for EBD-positive area, agonist plus MRS1191: A3 antagonist MRS1191 0.05 mg/kg i.p. 30 min before agonist; for EBD-positive area: ligand alone i.p. 2 h before 90 min ischemia, PBS vehicle 28%±6%
# Procedure: Mouse Hindlimb Ischemia and Reperfusion Model: After 2.5- to 3-month-old wild-type (WT; C57BL6 strain) or PLC β2/β3 knockout mice (in C57BL6 background), each weighing about 23-25 g, were sedated with anesthetic (pentobarbital 50 mg/kg was given by intraperitoneal [i.p.] injection), their right or left hindlimbs (used randomly) were elevated briefly to minimize retained blood before being subjected to ischemia. Ischemia was induced by placement of a constrictor band (Latex O-Rings, Miltex Instruments, York, Pa.) above the greater trochanter with a McGiveney Hemorrhoidal Ligator (7 in long; Miltex). After 90 minutes of warm ischemia at 37° C., the constrictor was removed to allow reperfusion for 24 hours. The mice were continuously maintained on a 37° C. warming pad (Physitemp Instruments Inc, Clifton, N.J.) during the reperfusion. After the mice were killed by anesthetic overdose, the gastrocnemius muscle was quickly frozen, cut into three slices separated by 2-3 mm, and embedded in Shandon Cryomatrix (polyvinyl alcohol 10%, polyethylene glycol 4%; Anatomical Pathology U.S.A., Pittsburgh, Pa.). Each slice was processed as one 10 μm section on a Thermo Electron/Shandon Cryotome (Anatomical Pathology), fixed in ice-cold acetone, air dried, and washed in phosphate-buffered saline (PBS). Each 10 μm section had seven fields. Gastrocnemius was used because of its high proportion of fast-twitch muscle, which is prone to ischemia and reperfusion injury.
# Quantification of Skeletal Muscle Injury: Evans Blue dye (EBD), prepared as a 1% wt/vol solution to yielding 1 mg of EBD/10 g body weight), was given via a separate i.p. injection 2.5 hours before the induction of ischemia. EBD stained only injured muscle and EBD-positive cells were quantified. The percent EBD-positive cells in each field was averaged with those from all seven fields within one 10 μm section. The averaged fraction of EBD-positive cells in each 10 μm section was similar among the three sections. Each 10 μm section was also stained with rabbit polyclonal anti-skeletal muscle actin antibodies (ab15265; Abcam Inc, Cambridge, Mass.) and goat polyclonal anti-rabbit IgG conjugated with fluorescein isothiocyanate. Sections were mounted, and their cross sections were viewed with fluorescent microscopy (Evans Blue dye [EBD]-positive cells via a DM580 band pass filter 510-560 nm with emission of 590 nm; fluorescein isothiocyanate cells via a DM510 filter of 450-490 nm with emission at 520 nm). Each field was counted at 20× magnification and their images captured via the two filters for quantification of muscle injury as follows. Images were acquired and stored as JPEG files with a Macrofire camera (Macrofire 1.0, Optronics, Goleta, Calif.). The ImageProPlus Program (version 5.0, Media Cybernetics, Inc, Silver Spring, Md.) was used for the quantitative determination. The percentage of EBD-positive areas was calculated by dividing the area of EBD staining by the total muscle cells, a quantity defined as the total area stained by anti-skeletal muscle actin antibodies and was identical to the total area in each field minus the area not occupied by any cell. The actin-stained area included EBD-positive area, as shown in superimposed EBD- and actin antibody-stained images. Serum creatine kinase (CK) activity was measured with a previously described procedure. The fraction of skeletal muscle staining positive for EBD represented a direct determination of the muscle that was injured, and the serum CK level provided a circulating index of the extent of skeletal muscle injury. Both are established and accepted methods to quantify skeletal muscle injury.
# Protocol for Administration of Adenosine Receptor Agonist and Antagonist. […]
# [3] = tested on: exercise-induced skeletal muscle injury; assay: 15% downhill treadmill exercise-induced skeletal muscle injury, PLCβ2/β3-null mice; format: in vivo, mouse (PLCβ2/β3-null); settings: PLCβ2/β3-null mice treated, then exercised; P>0.1 vs PBS
# Text: (§1) Wild type (WT), beta-sarcoglycan-deficient, and PLCβ2/β3-null mice were all 8-10 weeks old and have similar body weights. Beta-sarcoglycan-null mice have been developed as a mouse model of limb-girdle muscular dystrophy. PLCβ2/β3-null mice have been used as a model to determine the physiologic role of these enzyme isoforms in mediating the effect of various adenosine receptor subtypes. The 15% downhill treadmill exercise is an established method to cause exertion-related skeletal muscle injury in rodents and has been used to gauge the success of therapy aimed at reducing skeletal muscle injury in mouse models of muscular dystrophy. Mice were exercised to exhaustion and for similar amount of time. […] Thus, only serum CK activity was used to quantify the extent of skeletal muscle injury in these normal WT mice. In the beta-sarcoglycan-null mice, there was already a significant level of skeletal muscle damage at baseline (in the absence of imposed physical exercise, EBD-positive area was 9.7±2.0%, n=28 mice, SE; serum CK was 2363±310, U/L, n=30 mice, SE). Both EBD staining and serum CK were used to quantify the extent of skeletal muscle injury.
# PLCβ2/β3-null mice were used as a model to determine the role of PLCβ2/β3 in mediating the protective effect on exercise-induced injury by Cl-IBMECA. […] Serum CK levels were used to quantify the extent of skeletal muscle injury. […]
# [4] = tested on: exercise-induced skeletal muscle injury; assay: 15% downhill treadmill exercise-induced skeletal muscle injury, wild-type mice; format: in vivo, mouse (wild type); settings: wild-type mice injected with agonist, then exercised; P<0.05 vs vehicle
# Text: as §1
# Adult wild-type mice were injected with the A3 receptor agonist Cl-IBMECA. They were then subjected to exercise, and their skeletal muscle injuries were quantified using serum CK was used as a marker of muscle injury. […]
# [5] = tested on: exercise-induced skeletal muscle injury; assay: 15% downhill treadmill exercise-induced skeletal muscle injury, beta-sarcoglycan-null mice (limb-girdle muscular dystrophy model); format: in vivo, mouse (beta-sarcoglycan-null); settings: beta-sarcoglycan-null mice treated, then exercised
# Text: as §1
# Beta-sarcoglycan-null mice were used as a model of Limb-Girdle Muscular Dystrophy. […] The extent of skeletal muscle injury was determined by (FIG. 10) serum CK level and (FIG. 11) percentage of EBD-stained area. […]
# [6] = 90 min ischemia, 24 h reperfusion, mean±SE
Compound,EBD-positive area [1],"EBD-positive area, agonist plus DPCPX [2, 6]","EBD-positive area, agonist plus MRS1191 [2, 6]","EBD-positive area ([2]; 24 h reperfusion, mean±SE)",other results
"CCNC(=O)[C@H]1O[C@@H](n2cnc3c(N)nc(NCCc4ccc(CCC(=O)O)cc4)nc32)[C@H](O)[C@@H]1O [CGS21680, 2-p-(2-Carboxyethyl)phenethylamino-5′-N-ethylcarboxamidoadenosine]",4%±1.1%,14.7%±2.3%,2.4%±1.25%,6.6%±3.5%,"EBD-positive area, agonist plus SCH 442416 ([2]; A2A antagonist SCH 442416 0.017 mg/kg i.p. 30 min before agonist, 90 min ischemia, 24 h reperfusion, mean±SE): 26%±4%"
CCCn1c(=O)c2[nH]c(C3CCCC3)nc2n(CCC)c1=O [DPCPX],–,–,–,19.3%±4.4%,–
"CCOC(=O)C1=C(C)NC(c2ccccc2)=C(C(=O)OCc2ccccc2)C1C#Cc1ccccc1 (racemic) [MRS1191, 3-ethyl 5-benzyl-2-methyl-6-phenyl-4-phenylethynyl-1,4-(±)-dihydropyridine-3,5-dicarboxylate]",–,–,–,23%±4.4%,–
C[C@H](Cc1ccccc1)Nc1ncnc2c1ncn2[C@@H]1O[C@H](CO)[C@@H](O)[C@H]1O [R-PIA],–,–,–,–,"extent of injury (EBD staining), result in words ([2]; given prior to ischemia and reperfusion, 0.05 mg/kg i.p.): significant reduction in the extent of injury"
"CNC(=O)[C@H]1O[C@@H](n2cnc3c(NCc4cccc(I)c4)nc(Cl)nc32)[C@H](O)[C@@H]1O [Cl-IBMECA, 2-chloro-N^6-(3-iodobenzyl)adenosine-5′-N-methyluronamide]",22%±3.6%,4%±1.6%,21.5%±3.5%,5.4%±2.6%,serum CK level vs. PBS after exercise [3]: unable to induce a reduction in the serum CK level; serum CK vs. vehicle after exercise [4]: reduction in the serum CK; serum CK level vs. vehicle after exercise ([5]; P=0.0066 vs vehicle): reduction in the serum CK level; percentage of EBD-positive area vs. vehicle after exercise ([5]; P=0.03 vs vehicle): reduced the percentage of EBD-positive area
"OC[C@H]1O[C@@H](n2cnc3c(NC4CCCC4)nc(Cl)nc32)[C@H](O)[C@@H]1O [CCPA, 2-chloro-N^6-cyclopentyladenosine]",8.5%±2.5%,22%±3.3%,12.2%±2.4%,10.8%±2%,–
